Data reported in patent publication US20250340591A1, “COMPOSITION FOR PREVENTING OR TREATING INFLAMMATORY BOWEL DISEASE CONTAINING NOVEL COMPOUND” (ANYGEN CO., LTD., priority 2021, published 2025).
Square brackets hold non-standard residues; d marks the D form. Peptide text beside a SMILES is read from it. * marks the point of attachment. His(Trt) = N[C@@H](Cc1cn(C(c2ccccc2)(c2ccccc2)c2ccccc2)cn1)C(=O)O; dHis(Trt) = N[C@H](Cc1cn(C(c2ccccc2)(c2ccccc2)c2ccccc2)cn1)C(=O)O; His(τ-CHPh2) = N[C@@H](Cc1cn(C(c2ccccc2)c2ccccc2)cn1)C(=O)O; Biotin = O=C1N[C@H]2[C@H](CS[C@H]2CCCCC(=O)*)N1; Tyr(3-Cl) = N[C@@H](Cc1ccc(O)c(Cl)c1)C(=O)O; Bip = N[C@@H](Cc1ccc(-c2ccccc2)cc1)C(=O)O; dPhe(4-Cl) = N[C@H](Cc1ccc(Cl)cc1)C(=O)O; dPhe(4-Me) = Cc1ccc(C[C@@H](N)C(=O)O)cc1; d2Nal = N[C@H](Cc1ccc2ccccc2c1)C(=O)O; Palmitoyl = CCCCCCCCCCCCCCCC(=O)*; Myristoyl = CCCCCCCCCCCCCC(=O)*; Octanoyl = CCCCCCCC(=O)*; Boc = CC(C)(C)OC(=O)*

Target: T1, GPR39 (Homo sapiens, UniProt O43194)
T1 sequence (O43194 1-453): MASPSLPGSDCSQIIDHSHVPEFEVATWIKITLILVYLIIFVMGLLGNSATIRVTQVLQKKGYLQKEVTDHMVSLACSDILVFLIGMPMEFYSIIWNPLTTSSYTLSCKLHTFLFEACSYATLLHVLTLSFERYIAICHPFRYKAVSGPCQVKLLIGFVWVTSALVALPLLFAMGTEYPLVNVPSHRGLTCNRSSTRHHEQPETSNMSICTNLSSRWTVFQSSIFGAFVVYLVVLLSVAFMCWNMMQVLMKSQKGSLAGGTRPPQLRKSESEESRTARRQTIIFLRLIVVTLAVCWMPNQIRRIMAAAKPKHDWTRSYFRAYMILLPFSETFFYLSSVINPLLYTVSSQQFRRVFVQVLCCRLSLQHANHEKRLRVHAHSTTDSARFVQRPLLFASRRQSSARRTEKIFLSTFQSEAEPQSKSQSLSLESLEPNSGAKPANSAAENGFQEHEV
Experiment: luciferase assay system (SRE luciferase reporter gene, CV-1 cells expressing GPR39)
Format: cell-based
Design: expressed in transfected cells; host or cells: CV-1 fibroblast cell line (Korea Cell Line Bank), adenoviral transduction at 50 MOI
Conditions: not given

| SMILES | ECmax (−fold induction over basal) [fold induction over basal] |
| --- | --- |
| CCCCCCCC(=O)NCCCC[C@H](NC(=O)[C@@H](N)Cc1cn(-c2ccc(C(C)(C)C)cc2)cn1)C(=O)N[C@H](Cc1ccc(C)cc1)C(=O)N[C@@H](Cc1ccc(O)cc1)C(=O)O [HKFY-61, ((R)-2-((S)-2-((S)-2-amino-3-(1-(4-(tert-butyl)phenyl)-1H-imidazol-4-yl)propanamido)-6-octanamidohexanamido)-3-(p-tolyl)propanoyl)-L-tyrosine] | 9.88 ± 1.8 |
| CCCCCCCC(=O)NCCCC[C@H](NC(=O)[C@@H](N)Cc1c[nH]c(-c2ccc(C(C)(C)C)cc2)n1)C(=O)N[C@H](Cc1ccc(C)cc1)C(=O)N[C@@H](Cc1ccc(O)cc1)C(=O)O [HKFY-60, ((R)-2-((S)-2-((S)-2-amino-3-(2-(4-(tert-butyl)phenyl)-1H-imidazol-4-yl)propanamido)-6-octanamidohexanamido)-3-(p-tolyl)propanoyl)-L-tyrosine] | 28.2 ± 2.5 |
| CCCCCCCC(=O)NCCCC[C@H](NC(=O)[C@@H](N)Cc1cn(C(c2ccccc2)(c2ccccc2)c2ccccc2)cn1)C(=O)N[C@@H](Cc1ccc(O)cc1)C(=O)N[C@@H](Cc1ccccc1)C(=O)O [HKFY-47, N6-octanoyl-N2-(Nt-trityl-L-histidyl)-L-lysyl-L-tyrosyl-L-phenylalanine] (H-[His(Trt)]K(Octanoyl)YF-OH) | 13 ± 1.7 |
| CCCCCCCC(=O)NCCCC[C@H](NC(=O)[C@@H](N)Cc1cn(C23CC4CC(CC(C4)C2)C3)cn1)C(=O)N[C@@H](Cc1ccccc1)C(=O)N[C@@H](Cc1ccc(O)cc1)C(=O)O [HKFY-23, N2-(Nt-(adamantan-1-yl)-L-histidyl)-N6-octanoyl-L-lysyl-L-phenylalanyl-L-tyrosine] | 15 ± 1.37 |
| CCCCCCCC(=O)NCCCC[C@H](NC(=O)[C@H](Cc1cn(C(c2ccccc2)(c2ccccc2)c2ccccc2)cn1)NC(=O)CCCC[C@@H]1SC[C@@H]2NC(=O)N[C@@H]21)C(=O)N[C@@H](Cc1ccc(-c2ccccc2)cc1)C(=O)N[C@@H](Cc1ccc(O)cc1)C(=O)O [HKFY-45, ((S)-3-([1,1′-biphenyl]-4-yl)-2-((S)-6-octanamido-2-((S)-2-(5-((3aS,4S,6aR)-2-oxohexahydro-1H-thieno[3,4-d]imidazol-4-yl)pentanamido)-3-(1-trityl-1H-imidazol-4-yl)propanamido)hexanamido)propanoyl)-L-tyrosine] (Biotin-[His(Trt)]K(Octanoyl)[Bip]Y-OH) | 21 ± 2.58 |
| CCCCCCCC(=O)NCCCC[C@H](NC(=O)[C@@H](N)Cc1cn(CCC2CCCCC2)cn1)C(=O)N[C@@H](Cc1ccccc1)C(=O)N[C@@H](Cc1ccc(O)cc1)C(=O)O [HKFY-11, N2-(Nt-(2-cyclohexylethyl)-L-histidyl)-N6-octanoyl-L-lysyl-L-phenylalanyl-L-tyrosine] | 22 ± 2.2 |
| CCCCCCCC(=O)NCCCC[C@H](NC(=O)[C@@H](N)Cc1cn(C(c2ccccc2)(c2ccccc2)c2ccccc2)cn1)C(=O)N[C@@H](Cc1ccccc1)C(=O)O [HKFY-49, N6-octanoyl-N2-(Nt-trityl-L-histidyl)-L-lysyl-L-phenylalanine] (H-[His(Trt)]-Lys(Octanoyl)-Phe-OH) | 18.3 ± 1.8 |
| CCCCCCCCCCCCCC(=O)NCCCC[C@H](NC(=O)[C@@H](N)Cc1cn(C(c2ccccc2)(c2ccccc2)c2ccccc2)cn1)C(=O)N[C@@H](Cc1ccccc1)C(=O)N[C@@H](Cc1ccc(O)cc1)C(=O)O [HKFY-26, N6-tetradecanoyl-N2-(Nt-trityl-L-histidyl)-L-lysyl-L-phenylalanyl-L-tyrosine] (H-[His(Trt)]K(Myristoyl)FY-OH) | 19.82 ± 0.57 |
| CCCCCCCC(=O)NCCCC[C@H](NC(=O)[C@H](N)Cc1cn(C(c2ccccc2)(c2ccccc2)c2ccccc2)cn1)C(=O)N[C@H](Cc1ccc(Cl)cc1)C(=O)N[C@H](Cc1ccc(O)cc1)C(=O)O [HKFY-14, ((R)-2-((S)-2-((R)-2-amino-3-(1-trityl-1H-imidazol-4-yl)propanamido)-6-octanamidohexanamido)-3-(4-chlorophenyl)propanoyl)-D-tyrosine] (H-[dHis(Trt)]K(Octanoyl)[dPhe(4-Cl)][dY]-OH) | 20.9 ± 1.4 |
| CCCCCCCC(=O)NCCCC[C@H](NC(=O)[C@@H](N)Cc1cn(C(c2ccccc2)c2ccccc2)cn1)C(=O)O [HKFY-79, N2-(Nt-benzhydryl-L-histidyl)-N6-octanoyl-L-lysine] | 11.2 ± 1.4 |
| CCCCCCCC(=O)NCCCC[C@H](NC(=O)[C@H](Cc1c[nH]c2ccccc12)NC(=O)OC(C)(C)C)C(=O)N[C@H](Cc1ccc(C)cc1)C(=O)N[C@@H](Cc1ccc(O)cc1)C(=O)O [HKFY-78, ((R)-2-((S)-2-((S)-2-((tert-butoxycarbonyl)amino)-3-(1H-indol-3-yl)propanamido)-6-octanamidohexanamido)-3-(p-tolyl)propanoyl)-L-tyrosine] (Boc-WK(Octanoyl)[dPhe(4-Me)]Y-OH) | 11.4 ± 1.54 |
| CCCCCCCC(=O)NCCCC[C@H](NC(=O)[C@@H](N)Cc1cn(C(c2ccccc2)(c2ccccc2)c2ccccc2)cn1)C(=O)N[C@H](Cc1ccc2ccccc2c1)C(=O)N[C@@H](Cc1ccc(O)cc1)C(=O)O [HKFY-74, ((R)-2-((S)-2-((S)-2-amino-3-(1-trityl-1H-imidazol-4-yl)propanamido)-6-octanamidohexanamido)-3-(naphthalen-2-yl)propanoyl)-L-tyrosine] (H-[His(Trt)]K(Octanoyl)[d2Nal]Y-OH) | 18.8 ± 3.2 |
| CCCCCCCC(=O)NCCCC[C@H](NC(=O)[C@H](N)Cc1cn(C(c2ccccc2)c2ccccc2)cn1)C(=O)N[C@H](Cc1ccc(C)cc1)C(=O)N[C@@H](Cc1ccc(O)cc1)C(=O)O [HKFY-62, ((R)-2-((S)-2-((R)-2-amino-3-(1-benzhydryl-1H-imidazol-4-yl)propanamido)-6-octanamidohexanamido)-3-(p-tolyl)propanoyl)-L-tyrosine] | 28.1 ± 2.1 |

Other lines, results leading:

| ECmax (−fold induction over basal) [fold induction over basal] | SMILES |
| --- | --- |
| 6.76 ± 2.2 | CCCCCCCC(=O)NCCCC[C@H](NC(=O)[C@@H](N)Cc1cn(-c2ccccc2)c(-c2ccccc2)n1)C(=O)N[C@H](Cc1ccc(C)cc1)C(=O)N[C@@H](Cc1ccc(O)cc1)C(=O)O [HKFY-59, ((R)-2-((S)-2-((S)-2-amino-3-(1,2-diphenyl-1H-imidazol-4-yl)propanamido)-6-octanamidohexanamido)-3-(p-tolyl)propanoyl)-L-tyrosine] |
| 10 ± 1.48 | CCCCCCCC(=O)NCCCC[C@H](NC(=O)[C@@H](N)Cc1cn(CC2c3ccccc3-c3ccccc32)cn1)C(=O)N[C@@H](Cc1ccccc1)C(=O)N[C@@H](Cc1ccc(O)cc1)C(=O)O [HKFY-18] |
| 7.8 ± 2.5 | CCCCCCCC(=O)NCCCC[C@H](N)C(=O)N[C@@H](Cc1ccccc1)C(=O)N[C@@H](Cc1ccc(O)cc1)C(=O)O [HKFY-54, N6-octanoyl-L-lysyl-L-phenylalanyl-L-tyrosine] (H-Lys(Octanoyl)-Phe-Tyr-OH) |
| 20.4 ± 0.57 | CCCCCCCCCCCCCCCC(=O)NCCCC[C@H](NC(=O)[C@@H](N)Cc1cn(C(c2ccccc2)(c2ccccc2)c2ccccc2)cn1)C(=O)N[C@@H](Cc1ccccc1)C(=O)N[C@@H](Cc1ccc(O)cc1)C(=O)O [HKFY-27, N6-palmitoyl-N2-(Nt-trityl-L-histidyl)-L-lysyl-L-phenylalanyl-L-tyrosine] (H-[His(Trt)]K(Palmitoyl)FY-OH) |
| 18.3 ± 2.2 | CCCCCCCC(=O)NCCCC[C@H](NC(=O)[C@@H](N)Cc1cn(C(c2ccccc2)c2ccc(O)cc2)cn1)C(=O)N[C@H](Cc1ccc(C)cc1)C(=O)N[C@@H](Cc1ccc(O)cc1)C(=O)O (stereo partly drawn) [HKFY-65, ((2R)-2-((2S)-2-((2S)-2-amino-3-(1-((4-hydroxyphenyl)(phenyl)methyl)-1H-imidazol-4-yl)propanamido)-6-octanamidohexanamido)-3-(p-tolyl)propanoyl)-L-tyrosine] |
| 10.2 ± 1.51 | CCCCCCCC(=O)NCCCC[C@H](NC(=O)[C@@H](N)Cc1cn(C(c2ccccc2)c2ccccc2)cn1)C(=O)N[C@H](Cc1ccc(C)cc1)C(=O)N[C@@H](Cc1ccc(O)c(Cl)c1)C(=O)O [HKFY-67, (S)-2-((R)-2-((S)-2-((S)-2-amino-3-(1-benzhydryl-1H-imidazol-4-yl)propanamido)-6-octanamidohexanamido)-3-(p-tolyl)propanamido)-3-(3-chloro-4-hydroxyphenyl)propanoic acid] (H-[His(τ-CHPh2)]K(Octanoyl)[dPhe(4-Me)][Tyr(3-Cl)]-OH) |

Same assay, conditions: comment on Table 3

| SMILES | activity level for GPR39 (in words) |
| --- | --- |
| CCCCCCCC(=O)NCCCC[C@H](NC(=O)[C@@H](N)Cc1cn(C(c2ccccc2)c2ccc(O)cc2)cn1)C(=O)N[C@H](Cc1ccc(C)cc1)C(=O)N[C@@H](Cc1ccc(O)cc1)C(=O)O (stereo partly drawn) [HKFY-65, ((2R)-2-((2S)-2-((2S)-2-amino-3-(1-((4-hydroxyphenyl)(phenyl)methyl)-1H-imidazol-4-yl)propanamido)-6-octanamidohexanamido)-3-(p-tolyl)propanoyl)-L-tyrosine] | higher activity level than other HKFY derivatives |
